Our source for the EC50 and CC50 values is patent publication US20220395500A1, “SMALL MOLECULE ACTIVATORS OF INTERFERON REGULATORY FACTOR 3 AND METHODS OF USE THEREOF” (Neuralexo, Inc., priority 2020, published 2022).

Series [1] concerns IRF-Lucia luciferase reporter (ISRE) in THP1-Dual cells. Nature of the series: THP1-Dual IRF-Lucia luciferase reporter assay (ISRE activation). The format is cell-based, human. As to conditions: Homo sapiens, THP1-Dual, read-out: THP1 IRF EC50. In a few lines: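 Supernatant luminescence from the ISG54/ISRE-driven Lucia reporter was measured after 24 h exposure to 10 μM compound (LPS 313 ng/mL in control wells).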

Series [2] concerns NF-κB-SEAP reporter in THP1-Dual cells. Nature of the series: THP1-Dual NF-κB-SEAP reporter counterscreen. The format is cell-based, human. The settings on record: Homo sapiens, THP1-Dual, read-out: THP1 NFkB EC50. Here is the method:
THP1 Dual (InvivoGen) cell suspensions were cultured in RPMI 1640 (Hyclone, Logan, Utah) supplemented with 10% fetal bovine serum (Hyclone), 100 U/mL Normocin (Invivogen), and 50 U/mL PenStrep (Gibco, Dublin, Ireland) between a density of 7·10^5-2·10^6 cells/mL. Every other passage, media was supplemented with 5 U/mL Blasticidin and 100 U/mL Zeocin to maintain the expression constructs. White, flat-bottom 384-well plates (Greiner, Kremsmunster, Austria, 781080) were seeded with 2.5·10^4 cells/well in a total of 50 μL media containing 5 ng/mL phorbolmyristic acid (PMA) using a Matrix WellMate (Thermo Scientific) dispenser. After 48 hours of incubation at 37° C., media was removed using a BioTek ELx405 CW plate washer set to aspirate and wash each well three times with 65 μL 1×PBS. Plates were reloaded with 50 μL media without PMA and treatments added. Lipopolysaccharide in dimethylsulfoxide (DMSO) was transferred to control wells using a HP D300 microdispenser to a final concentration of 313 ng/mL. Compounds from chemical library plates were copied using a Sciclone (Caliper LifeSciences) mounted with a 384-pin transfer tool to obtain a final concentration of 10 μM. After incubation with treatments for 24 hours, 10 μL of supernatant media from each well was transferred into a white, flat-bottom 384-well plate for luminescence readout and a black-walled, clear flat-bottom 384-well plate for absorbance readout.
Specifically, to enable screening of novel chemical entities (NCEs) in a larger screening effort, a robust high-throughput cell-based assay system for primary hit identification of ISRE activators based on the above-mentioned target validation was desired. Human ISRE activity was verified using a THP-1 monocyte line containing the NF-κB-SEAP and IRF-Lucia luciferase dual reporter (THP1-Dual; Invivogen) that features two reporter genes, SEAP (secreted embryonic alkaline phosphatase) and Lucia luciferase, thereby enabling the simultaneous study of the NF-κB and IRF signalling pathways. The Lucia luciferase reporter is under the control of an ISG54 (interferon-stimulated gene) minimal promoter in conjunction with five IFN-stimulated response elements. The SEAP gene is driven by an IFN-β minimal promoter fused to five copies of the NF-κB consensus transcriptional response element and three copies of the c-Rel binding site. Both reporter proteins are readily measurable in the cell culture supernatant when using QUANTI-LUC™ and QUANTI-Blue SEAP detection reagents.
Using the experimental design and data analysis outlined above, optimized assay conditions were obtained. The responsiveness of the human THP-1 Dual cell line was evaluated in an array of assay conditions to obtain sensitive and reproducible results for the activation of IRF and NF-κB reporters. An optimal plating density and differentiation protocol for these cells was established in a 384-well format. All transfer steps are fully automated using high throughput robotic equipment. Briefly, cells are seeded in differentiation medium using a Matrix WellMate fitted with the WellMate Stacker (Thermo Scientific) and incubated at 37° C. with 5% CO2 for 48 h. Following differentiation, cells are washed using a BioTek ELx405 Select CW plate washer and growth medium added with the Matrix WellMate. Programmed control treatments are added to wells using a D300 digital dispenser fitted with T8+ dispense heads (Hewlett Packard) designed to dispense nanoliter quantities of material. Compounds from library plates are added using a pin tool fitted to a Sciclone ALH 3000 Workstation (Caliper Life Sciences) programmed with Maestro v4.4. After treatment, plates are returned to incubators for 24 hours. To measure reporter expression, supernatant is collected using the Sciclone and dispensed into 2 plates: 1) a white 384-well assay plate for Lucia luminescence measurements and 2) a clear-bottom black 384-well assay plate for SEAP absorbance measurements. […]

The next series is described as follows: J774-Dual cytotoxicity. It is filed as cell-based, mouse. As to conditions: mouse, J774-Dual cells, read-out: J774 cytotox CC50. In a few lines:
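CC50 derived from 8-point concentration series in mouse J774-Dual reporter cells, with viability read by CellTiter-Glo in the same plate. Run in parallel with EC50 and ISRE:NFκB ratio determination for cross-species confirmation.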

Series [3] is described as follows: THP1-Dual cytotoxicity (Cell Titer Glo, ATP). The format is cell-based, human. The settings on record: human, THP1-Dual cells, read-out: Thp1 cytotox CC50. An outline of the steps: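 CC50, the concentration killing half the cells, was derived from ATP-dependent CellTiter-Glo luminescence. Cells were THP1-Dual (human) and compound was tested as an 8-point dose-response series, with viability read in the same plate.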

Where [4] appears, read: Human Reporter Cell Line, 8-point dose response.

The structures appear in SMILES notation. Read-outs that look alike come from different tables or passages of the source.

As for `O=C(Nc1ccc(N2CCN(C(=O)c3cccs3)CC2)cc1)c1ccc(-c2ccccc2)cc1` [NA-19], the EC50 in series [1] (setting [4]) is 1.02 µM; in series [2] (setting [4]), 1.47 µM. The cytotoxic concentration (CC50) is more than 25 µM in “J774-Dual cytotoxicity” (Mouse Reporter Cell Line) and 8.49 µM in series [3] (Human Reporter Cell Line).

Take `O=C(Nc1ccc(N2CCN(C(=O)c3cccs3)CC2)cc1)c1ccc2c(c1)OCCO2` [NA-28]: in series [2] (setting [4]), the EC50 came out at 3.02 µM. Besides, the 50% cytotoxic concentration (CC50) (in the series “J774-Dual cytotoxicity” (Mouse Reporter Cell Line); in series [3] (Human Reporter Cell Line)) was more than 25 µM each time.

Take `COc1c(C)cc(Br)cc1C(=O)Nc1ccc(N2CCN(C(=O)c3cccs3)CC2)cc1` [NA-31]: in series [2] (setting [4]), the EC50 is approximately 3.24 µM. In addition, the CC50 (in the series “J774-Dual cytotoxicity” (Mouse Reporter Cell Line); in series [3] (Human Reporter Cell Line)) was more than 25 µM throughout.

As to `O=C(Nc1ccc(N2CCN(C(=O)c3cccs3)CC2)cc1)c1ccc(OCc2ccc(OC(F)(F)F)cc2)cc1` [NA-34], the results for the EC50 in series [1] (setting [4]) and in series [2] (setting [4]) were 4.42 µM and 6.38 µM, respectively. In addition, the CC50 (in “J774-Dual cytotoxicity” (Mouse Reporter Cell Line); in series [3] (Human Reporter Cell Line)) was more than 25 µM throughout.

As to `CCOc1cccc(COc2ccc(C(=O)Nc3ccc(N4CCN(C(=O)c5cccs5)CC4)cc3)cn2)c1` [NA-71], the EC50 in series [1] (setting [4]) came out at 3.33 µM; in series [2] (setting [4]) it was 6.57 µM. The CC50 (in “J774-Dual cytotoxicity” (Mouse Reporter Cell Line); in series [3] (Human Reporter Cell Line)) was more than 10 µM throughout.

Regarding `COC(=O)Cc1ccc(NC(=O)c2ccc(NC(=O)c3ccco3)cc2)cc1` [NC-3], the figures for the 50% effective concentration (EC50) in series [1] (setting [4]) and in series [2] (setting [4]) were 4.13 µM and approximately 6.13 µM, respectively. In addition, the CC50 (in “J774-Dual cytotoxicity” (Mouse Reporter Cell Line); in series [3] (Human Reporter Cell Line)) was more than 25 µM each time.

In the case of `Cc1c(C(=O)Nc2ccc3oc(-c4cccnc4)nc3c2)cccc1[N+](=O)[O-]` [ND-42], the EC50 in series [1] (Human Reporter Cell Line THP1) was approximately 0.00225 µM; in series [2] (Human Reporter Cell Line THP1), approximately 15.6 µM. The CC50 (in the series “J774-Dual cytotoxicity” (Mouse Reporter Cell Line J774); in series [3] (Human Reporter Cell Line THP1)) was more than 25 µM throughout.

As for `Cc1ccc(-c2nc3cc(Cl)ccc3o2)cc1NC(=O)c1cc([N+](=O)[O-])c(C)c([N+](=O)[O-])c1` [ND-61], the EC50 in series [2] (Human Reporter Cell Line THP1) is approximately 5.61 µM. The CC50 (in “J774-Dual cytotoxicity” (Mouse Reporter Cell Line J774); in series [3] (Human Reporter Cell Line THP1)) was more than 25 µM throughout.

Take `Cc1ccc(-c2nc3ccccc3s2)cc1NC(=O)c1cc(I)ccc1Cl` [ND-62]: the 50% effective concentration (EC50) in series [2] (Human Reporter Cell Line THP1) is approximately 9.34 µM. Besides, the CC50 (in the series “J774-Dual cytotoxicity” (Mouse Reporter Cell Line J774); in series [3] (Human Reporter Cell Line THP1)) was more than 25 µM in each case.

As for `Cc1ccc(C(=O)Nc2ccc(O)c(-c3nc4ccccc4s3)c2)cc1[N+](=O)[O-]` [ND-63], the 50% effective concentration (EC50) in series [2] (Human Reporter Cell Line THP1) was approximately 3.2 µM. Moreover, the cytotoxic concentration (CC50) in the series “J774-Dual cytotoxicity” (Mouse Reporter Cell Line J774) was more than 25 µM; in series [3] (Human Reporter Cell Line THP1), 27.4 µM.

As for `COc1ccc(C(=O)Nc2cc(-c3nc4ccccc4s3)ccc2C)cc1Br` [ND-68], the EC50 in series [2] (Human Reporter Cell Line THP1) is approximately 9.75 µM. The CC50 (in “J774-Dual cytotoxicity” (Mouse Reporter Cell Line J774); in series [3] (Human Reporter Cell Line THP1)) was more than 25 µM throughout.

As to `Oc1ccc(-c2nc3ccc(O)cc3o2)cc1` [ND-74], the EC50 in series [2] (Human Reporter Cell Line THP1) was 32.5 µM. In addition, the cytotoxic concentration (CC50) (in “J774-Dual cytotoxicity” (Mouse Reporter Cell Line J774); in series [3] (Human Reporter Cell Line THP1)) was more than 25 µM in each case.

Regarding `Cc1ccc(-c2nc3ccccc3s2)cc1NC(=O)c1ccc(C(F)(F)F)c([N+](=O)[O-])c1` [ND-79], the EC50 in series [2] (Human Reporter Cell Line THP1) is approximately 11.3 µM. Also, the CC50 (in the series “J774-Dual cytotoxicity” (Mouse Reporter Cell Line J774); in series [3] (Human Reporter Cell Line THP1)) was more than 25 µM each time.

Regarding `COc1ccc2oc(-c3ccc(C)c(NC(=O)c4ccc(OC)c([N+](=O)[O-])c4)c3)nc2c1` [ND-86], the concentration for a half-maximal effect (EC50) in series [2] (Human Reporter Cell Line THP1) is approximately 3.85 µM. In addition, the CC50 (in “J774-Dual cytotoxicity” (Mouse Reporter Cell Line J774); in series [3] (Human Reporter Cell Line THP1)) was more than 25 µM in each case.

Consider `COc1ccc(C(=O)Nc2cc(-c3nc4cc(OCCCN5CCCC5)ccc4o3)ccc2C)cc1[N+](=O)[O-]` [ND-92], for which the EC50 in series [2] (Human Reporter Cell Line THP1) is approximately 2.33 µM. Moreover, the CC50 (in the series “J774-Dual cytotoxicity” (Mouse Reporter Cell Line J774); in series [3] (Human Reporter Cell Line THP1)) was more than 25 µM in each case.

As for `COc1c(Cl)cc(C(=O)Nc2cc(-c3nc4cc(Cl)ccc4o3)ccc2C)cc1Cl` [ND-101], the EC50 in series [2] (Human Reporter Cell Line THP1) is approximately 3.75 µM. Further, the CC50 (in “J774-Dual cytotoxicity” (Mouse Reporter Cell Line J774); in series [3] (Human Reporter Cell Line THP1)) was more than 25 µM in each case.

In the case of `Cc1cc2nc(-c3ccc(C)c(NC(=O)c4ccc([N+](=O)[O-])cc4Cl)c3)oc2cc1C` [ND-102], the EC50 in series [1] (Human Reporter Cell Line THP1) was determined as 24.7 µM; in series [2] (Human Reporter Cell Line THP1), 57.9 µM.

Take `Cc1cc2nc(-c3ccc(C)c(NC(=O)c4ccc(OCc5ccccc5)cc4)c3)oc2cc1C` [ND-105]: the concentration giving a half-maximal response (EC50) in series [2] (Human Reporter Cell Line THP1) came to 2.19 µM. Also, the half-maximal cytotoxic concentration (CC50) (in the series “J774-Dual cytotoxicity” (Mouse Reporter Cell Line J774); in series [3] (Human Reporter Cell Line THP1)) was more than 10 µM in each case.
